# Measured values published in US20150064328A1, “REBAUDIOSIDE C AND ITS STEREOISOMERS AS NATURAL PRODUCT SWEETNESS ENHANCERS” (Redpoint Bio Corporation, priority 2009, published 2015).
# “Also recorded” adds a separate entry of the source.
# Tests used:
# [1] = Double-blind controlled sweetness intensity test, sequential monadic, sip and spit (Example 1 protocol); type: in vivo, human
# Text: As used herein, the term “sweetness intensity” refers to the relative strength of sweet sensation as observed or experienced by an individual, e.g., a human, or a degree or amount of sweetness detected by a taster, for example on the scale from 0 (none) to 8 (very strong) (see Example 1) used in sensory evaluations according to the procedure described in American Society for Testing Materials, Special Technical Publication-434: “Manual on Sensory Testing Methods,” ASTM International, West Conshohocken, Pa. (1996). The sweetness enhancing effect of 300 μM Reb C (Chromadex, CA; purity 94.9%; 2.9% impurities other than water) on 5% (w/v-%) sucrose solution was evaluated in a double-blind controlled test conducted according to the following protocol. Three products were evaluated by trained judges as follows: • high concentration sucrose (7% w/v) • low concentration sucrose (5% w/v) • low concentration sucrose+sweetness enhancer (test compound) The products were evaluated using a sequential monadic test protocol. Subjects were given three samples to evaluate. Each subject was directed to swirl the first sample in his or her mouth for 3-5 seconds, expectorate the entire sample into a discard cup, and then assess the sweetness intensity of the sample. The intensity was rated on a score card by marking a numerical value along a scale from 0 to 8 (e.g., 0-none, 2=slight, 4=definite, 8=very strong). Following the decision regarding the sweetness intensity, subjects were instructed to rinse their mouth with water and spit in the discard cup. Subjects then were given unsalted crackers to cleanse the palate. A period of 10 minutes elapsed between presentations of each sample to reduce the potential influence of residual taste effects. A second sample was then presented and evaluated as above and the same procedure was followed until all three products were evaluated. Sample presentation was randomized to avoid order of presentation bias. To participate in the sensory panel, judges or subjects were chosen from an expert taste panel. These subjects were screened for taste acuity and were trained in evaluating solutions using the sip and spit protocol and were trained in using a rating ballot. The number of judges who participated in the study was 20. The female subjects were all non-pregnant and all volunteers were of <55 years of age with no history of allergy to sucrose. Judges were asked to execute an informed consent form. Specifically, the following instructions were given to the judges: Please take a sip of water. Carefully take the cap off the sample cup placed in front of you. Sip, swirl for 3-5 seconds, and then spit the sample into the cup provided, then assess the intensity of the sweetness of the sample. Please evaluate the sample for the intensity of the sweet flavor and put a vertical mark on the number that best describes the intensity. Rinse your mouth with the water provided and spit into the discard cup. Use crackers provided to cleanse your palate before evaluating the next sample. If any other flavor was present in the sample please describe it. Please rinse your mouth again several times and have some more water and unsalted crackers. You will now have a rest period of 10 minutes before you will be given the next sample.
# [2] = Double-blind controlled sweetness intensity test, sequential monadic, taste and swallow (Example 6 protocol); type: in vivo, human
# [3] = Forced-choice taste test of Reb C water solution versus water; type: in vivo, human; conditions: 250 μM Reb C water solution
# Procedure: The taste of a 250 μM Reb C solution was evaluated by a test group having five (5) subjects as follows (Forced-choice): Subjects were presented with 2 cups, each containing 10 ml of either 250 μM Reb C water solution or water (room temperature). […] Subjects were asked to sip most or all of the 10 ml from the first cup, swish the liquid in their oral cavity, and expectorate into a cup, then rinse their mouths vigorously with water. Soon thereafter, the contents of the second cup were sampled in the same manner. Then, subjects were asked to choose the sweeter of the two samples, or if not sweet, to describe the qualitative taste profile of the sample having a detectable taste.
# [4] = Open qualitative taste report of Reb C water solutions; type: in vivo, human; conditions: 250 and 300 μM Reb C in water; all 4 subjects gave the same description
# Procedure: The taste of 250 μM and 300 μM Reb C solutions were evaluated as follows by another test group having four (4) subjects as follows: 10 ml solutions of 250 and 300 μM Reb C in water were sampled by four subjects who were asked to report their qualitative taste experience of the solutions.
# [5] = Quantitative taste profile by trained panel (sweet, bitter, salt, sour, licorice); type: in vivo, human
# Procedure: The taste of 150, 300, and 600 μM Reb C was evaluated by a test group. 10 panelists were trained over a period of a few weeks to provide a quantitative flavor profile of Reb C. Panelists first were trained using standard tastants representing the different taste modalities given in FIG. 7 (i.e., sweet, bitter, salt, sour, and licorice). They then were trained to use the scales when flavors were mixed together. All intensity ratings are on scales ranging from 0 (no taste) to 8 (highest intensity). The intensity rating for sweet is essentially the same as used in Examples 1 and 6. The taste profiles were obtained for 150, 300, and 600 μM Reb C. Reb A (0.2 mg/ml, a concentration used in some food/beverage applications for sweetening) was also evaluated in the test for comparison. The scale is not linear at the bottom. A rating of 1 is around the threshold for sweetness detection.
# [6] = cited from earlier work
# [7] = 300 μM Reb C in 8% (w/v-%) fructose solution, FIG. 16
# [8] = sweetness intensities equivalent to 3% (w/v-%) sucrose
# [9] = sweetness intensities equivalent to 7% (w/v-%) sucrose
structure (smiles),measurement,setting,value
"C=C1C[C@@]23CC[C@H]4[C@@](C)(CCC[C@@]4(C)C(=O)O[C@@H]4O[C@H](CO)[C@@H](O)[C@H](O)[C@H]4O)[C@@H]2CC[C@]1(O[C@@H]1O[C@H](CO)[C@@H](O)[C@H](O[C@@H]2O[C@H](CO)[C@@H](O)[C@H](O)[C@H]2O)[C@H]1O[C@@H]1O[C@@H](C)[C@H](O)[C@@H](O)[C@H]1O)C3 [Reb C, Rebaudioside C]",sweetness of sucrose solution in combination with Reb C,"[1]; 150 μM Reb C in 8% (w/v-%) sucrose solution, FIG. 4",between that of the 8% (w/v-%) sucrose solution and that of an 11% (w/v-%) sucrose solution
same,sweetness of fructose solution in combination with Reb C,"[1]; 300 μM Reb C in 5% (w/v-%) fructose solution, FIG. 2",close to that of a 7% (w/v-%) fructose solution
same,sweetness of sucrose solution in combination with Reb C,"[1]; 300 μM Reb C in 5% (w/v-%) sucrose solution, 20 judges, scale 0 to 8, FIG. 1",indistinguishable from that of a 7% (w/v-%) sucrose solution
same,sweetness of sucrose solution in combination with Reb C,"[1]; 300 μM Reb C in 8% (w/v-%) sucrose solution, FIG. 3",close to that of an 11% (w/v-%) sucrose solution
same,mean sweetness intensity score,"[1]; 8% (w/v-%) sucrose solution with 150 μM Reb C, scale 0 to 8, 8% sucrose solution alone scored 5.30",6.10
same,statistical significance of the effect of Reb C,[2]; [7],not statistically significant
same,sweetness of fructose solution in combination with Reb C,[2]; [7],between that of the 8% (w/v-%) fructose solution and that of an 11% (w/v-%) fructose solution
same,sweetness of iced tea with sucrose in combination with Reb C,"[2]; 300 μM Reb C in iced tea with 8% (w/v-%) sucrose, FIG. 6",between that of the 8% (w/v-%) sucrose solution and that of an 11% (w/v-%) sucrose solution
same,sweetness of iced tea with HFCS55 in combination with Reb C,"[2]; 300 μM Reb C in iced tea with 10.39% (w/v-%) HFCS55, 20 judges, FIG. 5",indistinguishable from that of a 14.29% (w/v-%) HFCS55 (HFCS) solution
same,sweetness intensity of cola beverage with HFCS55 in combination with Reb C,"[2]; 190 ppm Reb C, 10.39% (w/v-%) HFCS55, buffered with citric acid, pH 2.7-2.8, FIG. 10",significantly increases the sweetness intensity to that of 14.29% HFCS55
same,sweetness of cola beverage with HFCS55 in combination with Reb C,"[2]; 190 ppm Reb C, 10.39% (w/v-%) HFCS55, buffered with phosphoric acid, FIG. 14",not higher than that of 10.39% (w/v-%) HFCS55 cola beverage alone
same,sweetness of lemon-lime soda with HFCS55 in combination with Reb C,"[2]; 190 ppm Reb C, 10.39% (w/v-%) HFCS55, citric acid 0.15%, pH 2.6-2.7, FIG. 12",did not reach the sweetness of a 14.29% (w/v-%) HFCS55 solution
same,sweetness of erythritol solution in combination with Reb C,"[2]; 285 ppm (300 μM) Reb C in 7.14% erythritol solution, equivalent to 5% (w/v-%) sucrose, FIG. 9","significantly sweeter than the 7.14% erythritol solution alone, but did not achieve the sweetness of a 10% erythritol solution"
same,sweetness intensity of cola beverage with HFCS55 in combination with Reb C,"[2]; 310 ppm Reb C, 10.39% (w/v-%) HFCS55, buffered with phosphoric acid, FIG. 15","increased significantly the sweetness intensity of a cola beverage containing 10.39% (w/v-%) HFCS55, but did not reach the sweetness of a 14.29% (w/v-%) HFCS55 cola beverage"
same,sweetness of unsweetened cola beverage with Reb C,"[2]; concentrations 190 ppm or below (95, 190 and 285 ppm tested), FIG. 11",does not increase the sweetness of an unsweetened cola beverage
same,sweetness of unsweetened lemon-lime soda with Reb C,"[2]; control group of Example 11, concentrations 190 ppm or below (95, 190 and 285 ppm tested)",does not increase the sweetness of an unsweetened cola beverage
same,identification of the sample containing Reb C versus water,"[3]; 5 subjects, forced-choice",All subjects correctly identified the sample containing Reb C
same,"qualitative taste description, one per subject",[3]; subjects 1 to 5,"Metallic, not sweet; also recorded: Aversive (“Nasty”); also recorded: Slight sweet, astringent; also recorded: Faintly sweet; also recorded: Slight sweet/licorice"
same,qualitative taste description,[4],Both concentrations bitter and/or licorice
same,"unpleasant tastes, bitter and licorice","[5]; 150, 300 and 600 μM Reb C alone, FIG. 7",barely detected
same,intrinsic sweetness,"[5]; 150, 300 and 600 μM Reb C, 10 panelists, scale 0 to 8, FIG. 7",little or no intrinsic sweetness
same,"unpleasant tastes, bitter and licorice, when combined with sugar",[5]; Reb C combined with sugar,undetected
C=C1C[C@@]23CC[C@H]4[C@@](C)(CCC[C@@]4(C)C(=O)O[C@@H]4O[C@H](CO)[C@@H](O)[C@H](O)[C@H]4O)[C@@H]2CC[C@]1(O[C@@H]1O[C@H](CO)[C@@H](O)[C@H](O[C@@H]2O[C@H](CO)[C@@H](O)[C@H](O)[C@H]2O)[C@H]1O[C@@H]1O[C@H](CO)[C@@H](O)[C@H](O)[C@H]1O)C3 [rebaudioside A],effect in mixtures with fructose and glucose,[6]; [8],additive effect
same,effect in mixtures with sucrose,[6]; [8],synergistic effect
same,"effect in mixtures with fructose, glucose and sucrose",[6]; sweetness intensities equivalent to 5% (w/v-%),additive effect
same,effect with a mixture with sucrose,[6]; [9],additive effect
same,effect with mixtures with glucose and fructose,[6]; [9],suppressive effect
"OC[C@H]1O[C@@](CO)(O[C@H]2O[C@H](CO)[C@@H](O)[C@H](O)[C@H]2O)[C@@H](O)[C@@H]1O [sucrose, α-D-glucopyranosyl-(1->2)-β-D-fructofuranose, reference compound]",mean sweetness intensity score,"[1]; 11% (w/v-%) sucrose solution, high concentration comparator, scale 0 to 8",6.95
